Assay results taken from ChEMBL document CHEMBL5131486, “Design, synthesis, biological evaluation and molecular modeling of N-isobutyl-N-((2-(p-tolyloxymethyl)thiazol-4yl)methyl)benzo[d][1,3] dioxole-5-carboxamides as selective butyrylcholinesterase inhibitors” (Bioorg Med Chem Lett, 2022).
Activity calls are given as the source filed them. No cut-off for these calls is given here.

What was measured:
Acetylcholinesterase [1] = biological target: T1, Acetylcholinesterase (Homo sapiens, UniProt P22303); assay: Inhibition of AChE (unknown origin) at 10 uM relative to control
Cholinesterase [2] = biological target: T2, Cholinesterase (Homo sapiens, UniProt P06276); assay: Inhibition of BuchE (unknown origin) at 10 uM relative to control
Cholinesterase [3] = biological target: T2, Cholinesterase; assay: Inhibition of BuchE (unknown origin)
[4] = Permeability of compound by PAMPA-BBB assay; format: ADME; settings: read-out: permeability
Acetylcholinesterase [5] = biological target: T1, Acetylcholinesterase; assay: Inhibition of AChE (unknown origin)
SH-SY5Y [6] = assay: Cytotoxicity against human SH-SY5Y cells assessed as reduction in cell viability at <20 uM incubated for 24 hrs by MTT assay; format: toxicity, cell-based
HepG2 [7] = assay: Cytotoxicity against human HepG2 cells assessed as reduction in cell viability at 50 uM incubated for 24 hrs by MTT assay relative to control; format: toxicity, cell-based; settings: hepg2, 24 h
HepG2 [8] = assay: Cytotoxicity against human HepG2 cells assessed as reduction in cell viability at <20 uM incubated for 24 hrs by MTT assay; format: toxicity, cell-based; settings: hepg2, 24 h
Cholinesterase [9] = biological target: T2, Cholinesterase; assay: Competitive inhibition of BuChE (unknown origin) assessed as increase in Km with constant Vmax at 0 to 400 nM using varying concentrations of substrate by Lineweaver-Burk plot analysis; settings: dose 0-400 nM
SH-SY5Y [10] = assay: Cytotoxicity against human SH-SY5Y cells assessed as reduction in cell viability at 50 uM incubated for 24 hrs by MTT assay relative to control; format: toxicity, cell-based

T1 sequence (P22303 whole entry): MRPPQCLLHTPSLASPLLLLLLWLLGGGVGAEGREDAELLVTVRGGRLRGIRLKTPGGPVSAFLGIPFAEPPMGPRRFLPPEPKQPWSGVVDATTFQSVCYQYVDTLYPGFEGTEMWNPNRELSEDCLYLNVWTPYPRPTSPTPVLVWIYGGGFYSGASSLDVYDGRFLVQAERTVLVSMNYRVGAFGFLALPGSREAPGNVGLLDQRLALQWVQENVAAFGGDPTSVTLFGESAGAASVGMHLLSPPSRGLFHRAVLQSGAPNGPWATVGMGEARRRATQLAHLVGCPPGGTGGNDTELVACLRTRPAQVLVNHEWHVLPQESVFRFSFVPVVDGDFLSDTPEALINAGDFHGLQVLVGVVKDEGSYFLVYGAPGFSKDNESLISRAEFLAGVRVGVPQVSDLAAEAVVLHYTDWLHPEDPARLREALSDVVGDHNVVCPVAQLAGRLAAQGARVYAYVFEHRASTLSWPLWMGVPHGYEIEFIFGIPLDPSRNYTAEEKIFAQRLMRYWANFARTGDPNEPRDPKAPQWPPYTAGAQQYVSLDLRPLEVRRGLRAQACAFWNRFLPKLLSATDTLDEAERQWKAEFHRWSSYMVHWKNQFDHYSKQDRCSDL
T2 sequence (P06276 whole entry): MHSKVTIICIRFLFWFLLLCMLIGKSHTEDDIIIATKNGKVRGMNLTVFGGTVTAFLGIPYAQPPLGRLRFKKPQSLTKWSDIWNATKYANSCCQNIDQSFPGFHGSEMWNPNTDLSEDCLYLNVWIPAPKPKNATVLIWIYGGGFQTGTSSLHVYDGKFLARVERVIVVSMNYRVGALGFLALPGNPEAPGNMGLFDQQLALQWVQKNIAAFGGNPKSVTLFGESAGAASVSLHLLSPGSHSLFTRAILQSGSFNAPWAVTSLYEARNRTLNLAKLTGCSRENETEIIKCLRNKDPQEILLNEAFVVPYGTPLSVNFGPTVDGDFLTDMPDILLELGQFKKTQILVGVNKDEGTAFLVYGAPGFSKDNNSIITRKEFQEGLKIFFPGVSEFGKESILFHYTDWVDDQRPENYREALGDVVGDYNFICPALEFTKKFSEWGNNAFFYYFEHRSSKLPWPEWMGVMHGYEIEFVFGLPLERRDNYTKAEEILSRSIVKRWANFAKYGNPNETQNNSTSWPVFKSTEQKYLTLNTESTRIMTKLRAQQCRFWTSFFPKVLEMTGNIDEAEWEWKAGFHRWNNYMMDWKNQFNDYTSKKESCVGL

Structure (SMILES)	inhibition (Acetylcholinesterase [1])	inhibition (Cholinesterase [2])	IC50 (Cholinesterase [3])	other results
CCCCCC(=O)N(Cc1csc(COc2ccc(C)cc2)n1)CC(C)C	2.55%	86.1%	1.99 µM	–
Cc1ccc(OCc2nc(CN(CC(C)C)C(=O)c3cccc(F)c3)cs2)cc1	0.51%	78.2%	2.43 µM	–
CC(C)CN(Cc1csc(COc2ccc(C(F)(F)F)cc2)n1)C(=O)c1ccc2c(c1)OCO2	1.71%	65.9%	5.23 µM	–
Cc1ccc(OCc2nc(CN(CC(C)C)C(=O)c3ccco3)cs2)cc1	1.61%	87.8%	1.67 µM	–
COc1cccc(C(=O)N(Cc2csc(COc3ccc(C)cc3)n2)CC(C)C)c1	1.46%	91.4%	0.97 µM	–
CC(C)CN(Cc1csc(COc2ccc(F)cc2)n1)C(=O)S(=O)(=O)c1ccccc1	9.12%	55.1%	8.19 µM	–
CCCC(=O)N(Cc1csc(COc2ccc(C)cc2)n1)CC(C)C	21.2%	66%	4.57 µM	–
CC(C)CN(Cc1csc(COc2ccc(Cl)cc2)n1)C(=O)c1ccc2c(c1)OCO2	-9.46%	91.2%	0.24 µM	–
CC(=O)[C@H]1CC[C@H]2[C@@H]3CCC4=CC(=O)CC[C@]4(C)[C@H]3CC[C@]12C [PROGESTERONE]	–	–	–	Papp [4]: 8.9 ×10⁻⁶ cm/s
Cc1ccc(OCc2nc(CN(CC(C)C)C(=O)c3ccc(F)cc3)cs2)cc1	–	82.2%	2.21 µM	–
CC(C)CN(Cc1csc(COc2ccc(F)cc2)n1)C(=O)S(=O)(=O)c1ccc2ccccc2c1	20.9%	40.7%	–	–
CC(=O)N(Cc1csc(COc2ccc(C)cc2)n1)CC(C)C	19.9%	64.8%	6.01 µM	–
Cc1ccc(OCc2nc(CN(CC(C)C)C(=O)S(=O)(=O)c3cccnc3)cs2)cc1	16.5%	48.3%	–	–
Cc1ccc(OCc2nc(CN(CC(C)C)C(=O)S(=O)(=O)c3ccc4ccccc4c3)cs2)cc1	18.7%	36.5%	–	–
Cc1ccc(OCc2nc(CN(CC(C)C)C(=O)c3cccc(C)c3)cs2)cc1	-5.65%	94.1%	1.17 µM	–
CNC(=O)Oc1ccc2c(c1)[C@]1(C)CCN(C)[C@]1(C)N2C	–	–	0.016 µM	–
Cc1ccc(OCc2nc(CN(CC(C)C)C(=O)c3ccc(Cl)cc3)cs2)cc1	-6.51%	65.5%	2.23 µM	–
CN1c2ccccc2C(NCCCCCCC(=O)CCCCNc2c3c(nc4ccccc24)CCCC3)c2ccc(Cl)cc2S1(=O)=O (centres undefined)	–	–	0.004 µM	IC50 (Acetylcholinesterase [5]): 0.16 µM
Cc1ccc(OCc2nc(CN(CC(C)C)C(=O)c3c(F)cccc3F)cs2)cc1	0.18%	66.4%	4.89 µM	–

Structure (SMILES)	inhibition (Acetylcholinesterase [1])	inhibition (Cholinesterase [2])	IC50 (Cholinesterase [3])	other results
Cc1ccc(OCc2nc(CN(CC(C)C)C(=O)c3cccs3)cs2)cc1	-0.31%	82%	2.3 µM	–
CCC(=O)N(Cc1csc(COc2ccc(C)cc2)n1)CC(C)C	-2.4%	55.3%	8.08 µM	–
Cc1ccc(OCc2nc(CN(CC(C)C)C(=O)c3ccccc3C)cs2)cc1	–	75.2%	4.1 µM	–
CN(Cc1csc(COc2ccc(F)cc2)n1)C(=O)c1ccc2c(c1)OCO2	12.8%	31.9%	–	–
Cc1ccc(OCc2nc(CN(CC(C)C)C(=O)c3ccccc3F)cs2)cc1	–	86.6%	1.39 µM	–
COc1ccc(OCc2nc(CN(CC(C)C)C(=O)c3ccc4c(c3)OCO4)cs2)cc1	-5.49%	77.8%	1.8 µM	–
Cc1ccc(OCc2nc(CN(CC(C)C)C(=O)S(=O)(=O)c3ccc(C)cc3)cs2)cc1	10.1%	38.4%	–	–
COc1ccc(C(=O)N(Cc2csc(COc3ccc(C)cc3)n2)CC(C)C)cc1	4.91%	32.8%	–	–
COCc1nc(CN(CC(C)C)C(=O)c2ccc3c(c2)OCO3)cs1	4.72%	15.3%	–	–
COc1ccccc1C(=O)N(Cc1csc(COc2ccc(C)cc2)n1)CC(C)C	2.25%	26%	–	–
Cc1ccc(S(=O)(=O)C(=O)N(Cc2csc(COc3ccc(F)cc3)n2)CC(C)C)cc1	14.3%	64.4%	6.85 µM	–
Cc1ccc(OCc2nc(CN(CC(C)C)C(=O)c3ccccc3Cl)cs2)cc1	–	72.4%	3.94 µM	–
Nc1c2c(nc3ccccc13)CCCC2	–	0.07%	–	–
Cc1ccc(OCc2nc(CN(CC(C)C)C(=O)c3ccc4c(c3)OCO4)cs2)cc1	1.76%	87.2%	1.28 µM	–
Cc1ccc(OCc2nc(CN(CC(C)C)C(=O)c3ccc(C)cc3)cs2)cc1	–	92.6%	1.05 µM	–
CC(C)CN(Cc1csc(COc2ccc(F)cc2)n1)C(=O)c1ccc2c(c1)OCO2	-9.02%	96.4%	0.13 µM	Papp [4]: 4.97 ×10⁻⁶ cm/s; Activity (SH-SY5Y [6]): Non-Toxic; Activity (HepG2 [7]): < 40%; Activity (HepG2 [8]): Non-Toxic; inhibition (Cholinesterase [9]): Active; Activity (SH-SY5Y [10]): < 40%
Cc1ccc(OCc2nc(CN(CC(C)C)C(=O)S(=O)(=O)c3ccccc3)cs2)cc1	12%	32.9%	–	–
Cc1ccc(OCc2nc(CN(CC(C)C)C(=O)c3ccccc3)cs2)cc1	0.25%	92%	1.15 µM	–
Cc1ccc(OCc2nc(CN(CC(C)C)C(=O)c3cccc(Cl)c3)cs2)cc1	-3.62%	97%	0.86 µM	–
